From patent publication US20230159436A1, “APPLICATIONS OF AMIDE ANALOGS OF TRITERPENES IN CURES OF CANCER AND OTHER DISEASES” (Pacific Arrow Limited, priority 2021, published 2023)
Like-named read-outs stand apart in the source and are kept apart here.

Experiments:
[1] = test system: cancer growth, cancer invasion, cells invasion or cancer cell invasion; experiment: Inhibition of cancer growth and invasion (anti-cancer activity); assay type: cell-based
From the text: The program is based on the purification methods and biological assays including the MTT assay as described in International Application No. PCT/US05/31900, filed Sep. 7, 2005, U.S. Ser. No. 11/289,142, filed Nov. 28, 2005, and U.S. Ser. No. 11/131,551, filed May 17, 2005, and PCT/US2008/002086, 1188-ALA-PCT, filed Feb. 15, 2008, Ser. No. 12/344,682, 1020-B1-US, filed Dec. 29, 2008, US009499577B2, filed Jun. 24, 2014. The details of Analysis of gene expression of ES2 cells after Y-treatment by Microarray, Data Analysis Methods and Western blot in PCT/US2008/002086, 1188-ALA-PCT, filed Feb. 15, 2008, and the cell invasion experiments methods in International Application PCT/US2010/0042240, filed Jul. 16, 2010.

[2] = test system: red blood cells (RBC); experiment: Haemolytic assay; assay type: cell-based, human
Description: Erythrocytes (RBC) were isolated from human blood (EDTA whole blood, collected randomly). 50 ul of the 10% RBC suspension (in PBS) was added to 2 ml of sample solutions (concentration range from 0.1 ug/ml to 400 ug/ml) in PBS. The mixture was vortexed briefly and sat for 60 min at room temperature. The mixture was spun at 3K for 10 min and the relative amounts of lysed hemoglobin in the supernatant were measured at 540 nm. The synthetic compounds of present application were tested with this method.

[3] = test system: U2OS, H460, HTB-9, ES2, HCT116, Capan, OVCAR3, DU145, SK-Mel-5, KB, A498, MCF-7, HepG2, T98G, K562, HeLa; experiment: MTT Cytotoxic Assay of reaction products and isolated compounds; assay type: cell-based
From the text: The peaks, fractions and compounds are selected according to the activities of times studies and the changes of peaks. Selecting the HPLC fractions for isolation is according to the cytotoxic activity of the reaction product obtained at a specific time. The compounds having strong to weak activities are selected and isolated. Selecting the HPLC fractions for isolation may be according to the cytotoxic activity of times studies and the change of peaks. The anti cancer activities are the MTT studies of bone (U2OS), lung (H460), bladder (HTB-9), ovary (ES2), colon (HCT116), pancreas (Capan), ovary (OVCAR3), prostate (DU145), skin (SK-Mel-5), mouth (KB), kidney (A498), breast (MCF-7), liver (HepG2), brain (T98G), luekemia (K562), cervix (HeLa).
Esterification, amidation, amination, or sulfonamidation of compound (A), (B), (C), (D1), (D2), (E), (F), (G), (H1), (H2), E4A, E4A2Y, E4D, E4D1, (P1), P(2), terpene, isoprene, triterpenes, hydroxylated triterpenes, with acyl halide, wherein the halide comprise chloride, bromide, fluoride and iodide, wherein the acyl halide comprise acyl chloride, wherein acyl chloride comprise tigloyl chloride, angeloyl chloride, acetyl chloride, crotonoyl chloride, 3,3-dimethylartyloyl chloride, senecioyl chloride, cinnamoyl chloride, pentenoyl chloride, hexanoyl chloride, benzoyl chloride, ethylbutyryl chloride, propionyl chloride, 2-propenoyl chloride, isobutyryl chloride, butyryl chloride, (2E)-2-pentenoyl chloride, 4-Pentenoyl chloride, 5-hexenoyl chloride, heptanoyl chloride, octanoyl chloride, nonanoyl chloride, decanoyl chloride, Lauroyl chloride, myristoyl chloride, oleoyl chloride. The compounds vary in composition when the time or temperature of the reaction is changed. The peaks, fractions and compounds are selected according to the activities of times studies and the changes of peaks. The compounds having strong to weak activities are selected and isolated. The anti cancer activities (Cytotoxic Assay) are the MTT studies of bone (U2OS), lung (H460), bladder (HTB-9), ovary (ES2), colon (HCT116), pancreas (Capan), ovary (OVCAR3), prostate (DU145), skin (SK-Mel-5), mouth (KB), kidney (A498), breast (MCF-7), liver (HepG2), brain (T98G), luekemia (K562), cervix (HeLa). The active esterification, amidation, amination, or sulfonamidation products are purified with HPLC. The reaction product of mixtures and individual compounds are tested with MTT Cytotoxic Assay. Details of method are in Experiment 3 of the present application. A second esterification of compound can be selected from the above experiment results to produce new active compounds. A partial esterification compound is selected from the above experiments to perform a second or repeated with a third esterification with different acyl chloride in order to produce new active compounds with the experiments in the present application. The active compounds of this invention are triterpenes in form of amine, sulfonamides, amide, and urea analogs, providing extremely stable activity in solution. They prolong the activities and duration of drug in a subject.
(§1) Cells. HTB-9 (bladder), HeLa-S3 (cervix), DU145 (prostate), H460 (lung), MCF-7 (breast), K562 (leukemia), HCT116 (colon), HepG2 (liver), U2OS (bone), T98G (brain), SK-MEL-5 (Skin) and OVCAR 3, ES2 (ovary), Pancreas (Capan), Mouth (KB), Kidney (A498).
MTT Assay. The procedure for MTT assay followed the method described by Carmichael et al. (1987) with modifications. The cells were seeded into a 96-well plate at for 24 hours before drug-treatment. The cells were then exposed to the drugs for 48, 72, or 96 hours. After the drug-treatment, MTT (0.5 mg/mL) was added to cultures and incubated for an hour. The formazan (product of the reduction of tetrazolium by viable cells) formed and was dissolved with DMSO and the O.D. at 490 nm, and was measured by an ELISA reader. The MTT level of the cells before drug-treatment was also measured (T0). […]

[4] = test system: OVCAR3; experiment: MTT assay, ovary (OVCAR3); assay type: cell-based
Description: as §1
MTT Assay. The procedure for MTT assay followed the method described by Carmichael et al. (1987) with modifications. The cells were seeded into a 96-well plate at for 24 hours before drug-treatment. The cells were then exposed to the drugs for 48, 72, or 96 hours. After the drug-treatment, MTT (0.5 mg/mL) was added to cultures and incubated for an hour. The formazan (product of the reduction of tetrazolium by viable cells) formed and was dissolved with DMSO and the O.D. at 490 nm, and was measured by an ELISA reader. The MTT level of the cells before drug-treatment was also measured (T0). The % cell-growth (% G) is calculated as: % G=(TD−T0/TC−T0)×100(1), where TC or TD represents O.D. readings of control or drug-treated cells.
When T0>TD, then the cytotoxicity (LC) expressed as % of the control is calculated as: % LC=(TD−T0/T0)×100(2).

Which “inhibiting cancer growth, cancer invasion, cells invasion or cancer cell invasion” value (from here on “inhibiting cancer growth”) [1] does the source give for `CC1O[C@@H](O[C@H]2C(O)[C@@H](O)C(C)O[C@H]2O[C@H]2C(O)[C@@H](O)C(CO)O[C@H]2OC2[C@H](O)C(C(=O)O)O[C@@H](O[C@H]3CC[C@@]4(C)C(CC[C@]5(C)C4CC[C@]46O[C@H](O)[C@]7(C4CC(C)(C)[C@@H](O)[C@@H]7O)[C@H](O)C[C@]65C)C3(C)C)[C@H]2O[C@@H]2OC(CO)[C@H](O)C(O)[C@@H]2O)[C@@H](O)C(O)[C@H]1O` (some centres unmarked) [AKOH-M10, reference compound] here?
The value was “do not show the ability”.

`CC1(C)CC2C3=CCC4[C@@]5(C)CC[C@H](O[C@@H]6OC(C(=O)O)[C@@H](O)C(O[C@@H]7O[C@@H](CO)C(O)[C@@H]7O)[C@@H]6O[C@@H]6OC(CO)[C@H](O)C(O)[C@@H]6O)C(C)(C)C5CC[C@@]4(C)[C@]3(C)[C@@H](O)[C@@H](O)[C@@]2(CO)[C@@H](O)[C@@H]1O` (some centres unmarked) [AKOH-Y, reference compound] was tested. Which “inhibiting cancer growth” value [1] did it give?
The value was “do not show the ability”.

Which results are given for `CC1(C)CC2C3=CCC4[C@@]5(C)CC[C@H](O)[C@](C)(CO)C5CC[C@@]4(C)[C@]3(C)C[C@@H](O)[C@@]2(CO)[C@@H](O)[C@@H]1O` (some centres unmarked) [E4A]?
anti-cancer activity [1]: no anti-cancer activity; inhibiting cancer growth, cancer invasion, cells invasion or cancer cell invasion [1]: no effect; hemolytic activity [2]: no hemolytic activity; MTT cytotoxic activity ([3]; FIG. 8, FIG. 10): no activity

Which anti-cancer activity [1] does the source give for `CC1(C)CC2C3=CCC4C5(C)CCC(N)C(C)(CN)C5CCC4(C)C3(C)CC(N)C2(CN)C(N)C1N` (centres unmarked) [E4D1] here?
The anti-cancer activity was “no anti-cancer activity”.

What about the “inhibiting cancer growth” value [1] of the same molecule?
The value was “no effect”.

What about the hemolytic activity [2] of the same molecule?
The hemolytic activity was “no hemolytic activity”.

What about the Cytotoxicity activity [3] of the same molecule?
The Cytotoxicity activity was “none and moderate and NONE”.

And the Cytotoxicity activity ([3]; listed as E1E4D1)?
The Cytotoxicity activity was “none”.

And the Cytotoxicity activity ([3]; listed as I 1E4D1)?
The Cytotoxicity activity was “none”.

How did the Cytotoxicity activity [3] turn out when `C=CC(=O)NCC1(C)C(N)CCC2(C)C1CCC1(C)C2CC=C2C3CC(C)(C)C(N)C(N)C3(CNC(=O)C=C)C(N)CC21C` (centres unmarked) [MM1] was run?
The Cytotoxicity activity was “moderate”.

With `C=CC(=O)NCC1(C)C(O)CCC2(C)C1CCC1(C)C2CC=C2C3CC(C)(C)C(O)C(O)C3(CNC(=O)C=C)C(O)CC21C` (centres unmarked) [MM2] as the molecule, how does the Cytotoxicity activity [3] read?
The Cytotoxicity activity was “strong”.

Which Cytotoxicity activity [3] does the source give for `C=CC(=O)NCC1(C)C(N)CCC2(C)C1CCC1(C)C2CC=C2C3CC(C)(C)C(NC(=O)C=C)C(N)C3(CN)C(N)CC21C` (centres unmarked) [MM3] here?
The Cytotoxicity activity was “moderate”.

How did the Cytotoxicity activity [3] turn out when `C=CC(=O)NCC1(C)C(N)CCC2(C)C1CCC1(C)C2CC=C2C3CC(C)(C)C(NC(=O)C=C)C(N)C3(CNC(=O)C=C)C(N)CC21C` (centres unmarked) [MM4] was run?
The Cytotoxicity activity was “weak”.

For `CC(C)C(=O)NCC1(C)C(N)CCC2(C)C1CCC1(C)C2CC=C2C3CC(C)(C)C(N)C(N)C3(CNC(=O)C(C)C)C(N)CC21C` (centres unmarked) [NN1], which Cytotoxicity activity [3] is on record?
The Cytotoxicity activity was “moderate”.

Which Cytotoxicity activity [3] does the source give for `CC(C)C(=O)NCC1(C)C(O)CCC2(C)C1CCC1(C)C2CC=C2C3CC(C)(C)C(O)C(O)C3(CNC(=O)C(C)C)C(O)CC21C` (centres unmarked) [NN2] here?
The Cytotoxicity activity was “strong”.

With `CC(C)C(=O)NCC1(C)C(N)CCC2(C)C1CCC1(C)C2CC=C2C3CC(C)(C)C(NC(=O)C(C)C)C(N)C3(CN)C(N)CC21C` (centres unmarked) [NN3] as the molecule, how does the Cytotoxicity activity [3] read?
The Cytotoxicity activity was “moderate”.

With `CC(C)C(=O)NCC1(C)C(N)CCC2(C)C1CCC1(C)C2CC=C2C3CC(C)(C)C(NC(=O)C(C)C)C(N)C3(CNC(=O)C(C)C)C(N)CC21C` (centres unmarked) [NN4] as the molecule, how does the Cytotoxicity activity [3] read?
The Cytotoxicity activity was “weak”.

Which Cytotoxicity activity [3] does the source give for `CCCC(=O)NCC1(C)C(N)CCC2(C)C1CCC1(C)C2CC=C2C3CC(C)(C)C(N)C(N)C3(CNC(=O)CCC)C(N)CC21C` (centres unmarked) [PP1] here?
Its Cytotoxicity activity is “moderate”.

With `CCCC(=O)NCC1(C)C(O)CCC2(C)C1CCC1(C)C2CC=C2C3CC(C)(C)C(O)C(O)C3(CNC(=O)CCC)C(O)CC21C` (centres unmarked) [PP2] as the molecule, how does the Cytotoxicity activity [3] read?
Its Cytotoxicity activity is “strong”.

How did the Cytotoxicity activity [3] turn out when `CCCC(=O)NCC1(C)C(N)CCC2(C)C1CCC1(C)C2CC=C2C3CC(C)(C)C(NC(=O)CCC)C(N)C3(CN)C(N)CC21C` (centres unmarked) [PP3] was run?
Its Cytotoxicity activity is “moderate”.

How did the Cytotoxicity activity [3] turn out when `CCCC(=O)NCC1(C)C(N)CCC2(C)C1CCC1(C)C2CC=C2C3CC(C)(C)C(NC(=O)CCC)C(N)C3(CNC(=O)CCC)C(N)CC21C` (centres unmarked) [PP4] was run?
The Cytotoxicity activity was “weak”.

Which Cytotoxicity activity [3] does the source give for `CCC=CC(=O)NCC1(C)C(N)CCC2(C)C1CCC1(C)C2CC=C2C3CC(C)(C)C(N)C(N)C3(CNC(=O)C=CCC)C(N)CC21C` (centres unmarked) [QQ1] here?
The Cytotoxicity activity was “moderate”.

For `CCC=CC(=O)NCC1(C)C(O)CCC2(C)C1CCC1(C)C2CC=C2C3CC(C)(C)C(O)C(O)C3(CNC(=O)C=CCC)C(O)CC21C` (centres unmarked) [QQ2], which Cytotoxicity activity [3] is on record?
The Cytotoxicity activity was “strong”.

What does the source list for `CC=C(C)C(=O)OCC1(C)C(O)CCC2(C)C1CCC1(C)C2CC=C2C3CC(C)(C)C(O)C(O)C3(CO)C(O)CC21C` (centres unmarked) [Tig-N]?
IC50 of ovary (OVCAR3) [4]: 18; anti-cancer activity [1]: have anti cancer activities

How did the “IC50 of ovary (OVCAR3)” value [4] turn out when `CC=C(C)C(=O)OCC1(C)C(O)CCC2(C)C1CCC1(C)C2CC=C2C3CC(C)(C)C(O)C(OC(=O)C(C)=CC)C3(CO)C(O)CC21C` (centres unmarked) [Tig-Q] was run?
The value was 23.

What about the anti-cancer activity [1] of the same molecule?
The anti-cancer activity was “have anti cancer activities”.

Which results are given for `CC=C(C)C(=O)OCC1(C)C(O)CCC2(C)C1CCC1(C)C2CC=C2C3CC(C)(C)C(O)C(OC(=O)C(C)=CC)C3(COC(=O)C(C)=CC)C(O)CC21C` (centres unmarked) [Tig-T]?
IC50 of ovary (OVCAR3) [4]: 25; anti-cancer activity [1]: have anti cancer activities

How did the “IC50 of ovary (OVCAR3)” value [4] turn out when `CC=C(C)C(=O)OCC1(C)C(OC(=O)C(C)=CC)CCC2(C)C1CCC1(C)C2CC=C2C3CC(C)(C)C(OC(=O)C(C)=CC)C(O)C3(CO)C(O)CC21C` (centres unmarked) [Tig-U] was run?
Its value is 27.

What does the source list for `CC=C(C)C(=O)OCC1(C)C(O)CCC2(C)C1CCC1(C)C2CC=C2C3CC(C)(C)C(OC(=O)C(C)=CC)C(O)C3(COC(=O)C(C)=CC)C(O)CC21C` (centres unmarked) [Tig-V]?
IC50 of ovary (OVCAR3) [4]: 9; anti-cancer activity [1]: have anti cancer activities
